Experiments:
Details in all cases: 72 h
[1] = tested on: HepG2; test: relative viability EC50 (midpoint between 100% and the lowest measured viability); higher = less toxic
[2] = tested on: Caco-2; test: as above
[3] = tested on: Vero E6; test: as above
[4] = tested on: U2OS; test: as above
[5] = tested on: Calu-3; test: as above
[6] = tested on: HepG2; test: drug sensitivity score (DSS) for viability; higher = more toxic; extreme values may be limits of the assay
[7] = tested on: Caco-2; test: as above
[8] = tested on: Vero E6; test: as above
[9] = tested on: U2OS; test: as above
[10] = tested on: Calu-3; test: as above
[11] = tested on: HepG2; test: cell viability relative to DMSO; higher = less toxic
[12] = tested on: Caco-2; test: as above
[13] = tested on: Vero E6; test: as above
[14] = tested on: U2OS; test: as above
[15] = tested on: Calu-3; test: as above

| SMILES | relative viability EC50 [1] | relative viability EC50 [2] | relative viability EC50 [3] | relative viability EC50 [4] | relative viability EC50 [5] | drug sensitivity score [6] | drug sensitivity score [7] | drug sensitivity score [8] | drug sensitivity score [9] | drug sensitivity score [10] | cell viability ([11]; 1 nM) | cell viability ([11]; 10 nM) | cell viability ([11]; 100 nM) | cell viability ([11]; 1000 nM) | cell viability ([11]; 10000 nM) | cell viability ([12]; 1 nM) | cell viability ([12]; 10 nM) | cell viability ([12]; 100 nM) | cell viability ([12]; 1000 nM) | cell viability ([12]; 10000 nM) | cell viability ([13]; 1 nM) | cell viability ([13]; 10 nM) | cell viability ([13]; 100 nM) | cell viability ([13]; 1000 nM) | cell viability ([13]; 10000 nM) | cell viability ([14]; 1 nM) | cell viability ([14]; 10 nM) | cell viability ([14]; 100 nM) | cell viability ([14]; 1000 nM) | cell viability ([14]; 10000 nM) | cell viability ([15]; 1 nM) | cell viability ([15]; 10 nM) | cell viability ([15]; 100 nM) | cell viability ([15]; 1000 nM) | cell viability ([15]; 10000 nM) |
| --- | --- | --- | --- | --- | --- | --- | --- | --- | --- | --- | --- | --- | --- | --- | --- | --- | --- | --- | --- | --- | --- | --- | --- | --- | --- | --- | --- | --- | --- | --- | --- | --- | --- | --- | --- |
| C[n+]1c2cc(N)ccc2cc2ccc(N)cc21 [acriflavinium] | 0.516 µM | 0.594 µM | 1.27 µM | 3.2 µM | 2.62 µM | 14.4 | 8.3 | 5.2 | 4.5 | 4.9 | 84.1% | 85.9% | 88.6% | 33.1% | 1.2% | 97.4% | 91.1% | 91% | 62.3% | 37.4% | 96.9% | 94.8% | 103% | 82% | 49.3% | 98.7% | 101% | 99.7% | 100% | 18.2% | 108% | 108% | 99.3% | 94.9% | 25.8% |
| CCC(CC)Nc1cc(C)nc(Oc2c(C)cc(C)cc2C)c1C | > 10 µM | > 10 µM | > 10 µM | > 10 µM | > 10 µM | 0 | 0 | 0 | 0 | 0 | 94.9% | 104% | 93.1% | 108% | 103% | 90.2% | 96.6% | 101% | 99.9% | 100% | 96.8% | 96.1% | 90.1% | 94.3% | 109% | 104% | 95.7% | 102% | 98.5% | 97% | 94.3% | 94.5% | 98.6% | 96.5% | 100% |
| Cc1nc2ccccc2c(-c2ccc3c4c(ccnc24)CCO3)c1[C@H](OC(C)(C)C)C(=O)O | > 10 µM | > 10 µM | > 10 µM | > 10 µM | > 10 µM | 0.1 | 0 | 0 | 0 | 0 | 103% | 84.3% | 95.2% | 94.4% | 87.1% | 109% | 98.1% | 110% | 113% | 113% | 111% | 99.3% | 102% | 101% | 95.2% | 97.6% | 97.2% | 99% | 101% | 99.1% | 88.3% | 102% | 85.5% | 109% | 105% |
| COc1ccc(NS(=O)(=O)c2ccc(/N=N/c3ccc(O)c(C(=O)O)c3)cc2)nn1 [salazodine] | > 10 µM | > 10 µM | > 10 µM | > 10 µM | > 10 µM | 0 | 0 | 0 | 0 | 0 | 99.6% | 97.7% | 92.5% | 95.1% | 96.9% | 111% | 89.4% | 97.4% | 95.4% | 93.7% | 105% | 108% | 95.7% | 101% | 101% | 101% | 98% | 98.6% | 96.2% | 102% | 98% | 108% | 102% | 116% | 111% |
| c1ccc(COCCCc2c[nH]cn2)cc1 [proxyfan] | > 10 µM | > 10 µM | > 10 µM | > 10 µM | > 10 µM | 0 | 0 | 0 | 0 | 0 | 97.9% | 108% | 97.7% | 103% | 107% | 96.4% | 92.9% | 93.5% | 91.6% | 95.6% | 96.9% | 95.8% | 95.9% | 99% | 93.3% | 99.6% | 97.8% | 102% | 97.5% | 101% | 101% | 101% | 98.4% | 103% | 105% |
| CN(C)CCOC(=O)COc1ccc(Cl)cc1 [meclofenoxate] | > 10 µM | > 10 µM | > 10 µM | > 10 µM | > 10 µM | 0 | 0 | 0 | 0 | 0 | 92.2% | 93.8% | 105% | 94.4% | 108% | 94.5% | 98.1% | 96.2% | 97.4% | 99.5% | 95.5% | 93.4% | 95.3% | 92.8% | 111% | 92.5% | 99.7% | 97.3% | 98.3% | 103% | 98% | 95.8% | 87.8% | 106% | 106% |
| CO/N=C(\C(=O)N[C@@H]1C(=O)N2C(C(=O)O)=C(CSc3nc(C)c(CC(=O)O)s3)CS[C@H]12)c1csc(N)n1 [cefodizime] | > 10 µM | > 10 µM | > 10 µM | > 10 µM | > 10 µM | 0 | 0 | 0 | 0 | 0 | 88.6% | 105% | 98.8% | 97.3% | 103% | 89.2% | 89.8% | 105% | 100% | 89.3% | 93.3% | 95.8% | 89.4% | 99.6% | 106% | 96.1% | 95.5% | 99.4% | 97.7% | 98.9% | 98.9% | 93.5% | 89.3% | 86.3% | 96.8% |
| CC1CCc2c(N3CCC(O)CC3)c(F)cc3c(=O)c(C(=O)O)cn1c23 (stereo not given) [nadifloxacin] | > 10 µM | > 10 µM | > 10 µM | > 10 µM | > 10 µM | 0 | 0 | 0 | 0 | 0 | 97% | 111% | 108% | 103% | 107% | 104% | 92.1% | 94.7% | 114% | 96.2% | 94.5% | 100% | 97.9% | 95.7% | 106% | 98.9% | 97.5% | 98.6% | 96.1% | 106% | 97.6% | 96.4% | 102% | 105% | 107% |
| Oc1cc(Cl)ccc1Oc1ccc(Cl)cc1Cl [triclosan] | > 10 µM | > 10 µM | > 10 µM | > 10 µM | > 10 µM | 0 | 0 | 0 | 0 | 0 | 105% | 99.3% | 102% | 93.8% | 113% | 105% | 102% | 94.5% | 95.6% | 126% | 97% | 104% | 106% | 112% | 95.3% | 98.7% | 96.5% | 98.3% | 97.9% | 99.3% | 97.7% | 92.3% | 106% | 101% | 107% |
| CC1(C)C(=O)NC2=C1C(=O)C(=O)c1ccccc12 [BVT-948] | 2.63 µM | 2.09 µM | 2.97 µM | 3.17 µM | 3.34 µM | 5.1 | 7.7 | 4.7 | 5.6 | 4.2 | 97.5% | 95.4% | 88.7% | 94.8% | 21.3% | 92.1% | 104% | 99.6% | 86.8% | 0.9% | 98.3% | 102% | 104% | 97.9% | 19.6% | 101% | 98% | 95.8% | 100% | 0.1% | 98% | 101% | 104% | 102% | 20.3% |
| COc1ccc(/C=C\c2cc(OC)c(OC)c(OC)c2)cc1OP(=O)(O)O [fosbretabulin] | 0.285 µM | 0.0584 µM | 0.0744 µM | 0.316 µM | 0.457 µM | 14.7 | 15.2 | 24.1 | 14.6 | 8.1 | 104% | 108% | 96.7% | 21.9% | 23.9% | 104% | 116% | 55.4% | 51.1% | 45.4% | 103% | 100% | 38.4% | 13% | 7% | 98.4% | 105% | 94% | 25.4% | 19.5% | 104% | 120% | 90.2% | 61.4% | 45.9% |
| CC(C)(COP(=O)(O)OP(=O)(O)OC[C@H]1O[C@@H](n2cnc3c(N)ncnc32)[C@H](O)[C@@H]1OP(=O)(O)O)[C@@H](O)C(=O)NCCC(=O)NCCS [coenzyme-A] | > 10 µM | > 10 µM | > 10 µM | > 10 µM | > 10 µM | 0 | 0 | 0 | 0 | 0 | 109% | 96.6% | 111% | 96% | 98.4% | 100% | 100% | 102% | 97.8% | 110% | 108% | 102% | 92.4% | 104% | 98.9% | 96.9% | 100% | 103% | 103% | 104% | 100% | 101% | 96.7% | 99.8% | 102% |
| CCc1cnn2c(NCc3ccc[n+]([O-])c3)cc(N3CCCC[C@H]3CCO)nc12 [dinaciclib] | 0.0105 µM | 0.0147 µM | 0.044 µM | 0.0107 µM | 0.0147 µM | 34.5 | 28.2 | 27.5 | 35.2 | 21.6 | 99.9% | 55.6% | 5.7% | 6.4% | 6.4% | 100% | 77.9% | 19.9% | 25.1% | 30.8% | 101% | 100% | 14.8% | 7% | 4.5% | 99.3% | 56% | 3.6% | 4% | 5.4% | 103% | 83.2% | 39.9% | 39.3% | 39.6% |
| CCCCn1c(-c2ccccc2)nc(-c2ccccc2)c1CN(Cc1ccc2c(c1)OCO2)Cc1ccc2c(c1)OCO2 | > 10 µM | > 10 µM | > 10 µM | > 10 µM | > 10 µM | 0 | 1.2 | 0 | 0.2 | 0 | 102% | 102% | 96.3% | 95.5% | 89.4% | 94.2% | 105% | 95.1% | 92.7% | 77.5% | 106% | 101% | 100% | 101% | 97.7% | 95.8% | 97.6% | 91.4% | 94% | 85.6% | 107% | 102% | 107% | 101% | 96.7% |

Reference: the supplement of paper PMC13380429
